{
  "source": "patent US10668048B2",
  "about": "“Compounds for inhibiting bacterial growth via phosphatidylglycerol binding” (Wichita State University, priority 2016, dated 2020)",
  "key": {"[1]": {"tested_on": "S. aureus (33186)", "assay": "Serial passage resistance experiment", "type": "cell-based", "settings": "0.5 MIC, LB, 37° C., 80-100 generations", "text": "(§1) Triplicate serial passage experiments were undertaken with E. coli (MC4100), S. aureus (33186) and E. feucalis (29213)."}, "[2]": {"tested_on": "E. feucalis (29213)", "assay": "Serial passage resistance experiment", "type": "cell-based", "settings": "0.5 MIC, LB, 37° C., 80-100 generations", "text": "as §1"}, "[3]": {"tested_on": "E. coli (MC4100)", "assay": "Serial passage resistance experiment", "type": "cell-based", "settings": "0.5 MIC, LB, 37° C., 80-100 generations", "text": "as §1"}, "[4]": {"tested_on": "Staphylococcus aureus str. ATCC 29213", "assay": "Long term growth study in brain-heart infusion medium", "type": "cell-based", "protocol": "(§2) Staphylococcus aureus str. ATCC 29213 was grown as shake-tubes in brain-heart infusion medium supplemented with liptin and culture densities were measured by turbidity (FIG. 13A). At 0.5 μM 3e, there was an 8-h lag phase before culture density began to increase, which was not seen without addition of liptin 3e. Further, the growth rate was substantially lower over the next 12 h as culture density approached that of controls. Lag phases were on the order of days to weeks at liptin concentrations of ≥1.5 μM, and slow recovery followed. […] Growth of Escherichia coli str. […] Our novel antibacterial compounds attack plasma membranes through a less specific mode of action, which may avoid the pitfalls that lead to antibiotic resistance."}, "[5]": {"tested_on": "Escherichia coli str. MC4100", "assay": "Long term growth study in brain-heart infusion medium", "type": "cell-based", "protocol": "as §2"}, "[6]": {"assay": "Water solubility", "type": "physicochemical", "settings": "TFA counterions", "text": "Route 1 involves reductive amination of the uncharged glycine picket with an aldehyde. Route 2 involves amidation of the meso-phenylamines via addition of chloroacetyl chloride followed by the SN2 addition of amines to the resultant alkyl chloride (examples of alkyl, polyether, or benzyl amines are shown in Scheme 1). Route 2 is capable of furnishing a more diverse set of pickets, and modeling has shown that the use of the aryl amines shown in Scheme 1 would position their phenolic OH groups to allow for hydrogen bonding with the lipid's fatty acid ester groups. At the present time, porphyrins 3f-h have been furnished using Route 2. Route 3 involves the transformation of the meso-phenylamines into phenylisocyanates, followed by the addition of a substituted hydrazine (prepared from an aldehyde and hydrazine to form the hydrazone followed by reductive amination or with commercially available hydrazines) to furnish a semicarbazide group whose nitrogen can be charged (FIG. 6). The urea portion of the semicarbazide would provide additional strong hydrogen-bonding sites for the glycerol hydroxyl groups."}, "[7]": {"tested_on": "E. coli (MC4100)", "assay": "Overnight growth study in LB broth", "type": "cell-based", "text": "This spectrum is identical to the spectrum of just liptin in water illustrating that the liptin is not degraded or metabolized when exposed to bacteria over long periods of time."}, "[8]": {"tested_on": "S. aureus (33186)", "assay": "Bactericidal (MBC) experiment, LB plates", "type": "cell-based", "settings": "5 μM, overnight culture then LB plate 16 hours", "protocol": "(§3) Cultures (5 mL) starting at 0.001 OD were grown overnight at 37° C. with different concentrations of […], and then a sample of culture was added to an LB plate and then it was incubated for 16 hours at 37° C. […] All experiments were done in triplicate, including control."}, "[9]": {"tested_on": "E. feucalis (29213)", "assay": "Bactericidal (MBC) experiment, LB plates", "type": "cell-based", "settings": "overnight culture then LB plate 16 hours", "protocol": "as §3"}, "[10]": {"tested_on": "E. coli (MC4100)", "assay": "Bactericidal (MBC) experiment, LB plates", "type": "cell-based", "settings": "overnight culture then LB plate 16 hours", "protocol": "as §3"}, "[11]": {"tested_on": "S. aureus plasma membrane", "assay": "Plasma membrane depolarization, DiS-C2(5) fluorescence", "type": "cell-based", "settings": "0.69-2.6 μM added at 90 s", "protocol": "The graph in FIGS. 15A-15C represents the depolarization of S. aureus plasma membrane measured by an increase in the fluorescence of 3,3-diethylthiodicabodyanine iodide. The dye, which has direct access to the Gram-positive plasma membrane, becomes highly fluorescent in membranes where polarization is lost. […] The membrane effects were measured against the known membrane-disruptive agent, cationic steroid antimicrobial-25 (CSA-25), one of a group of cholic acid-derived antimicrobial also known as ceragenins. This assay measured the effects of the Ammonium-picket porphyrin alone those of CSA-25 alone or a combination of Ammonium-picket porphyrin and CSA-25.\nBacterial cultures were grown overnight in TSB at 37° C. Cells were harvested by centrifugation and washed in a buffer containing 250 mM sucrose, 5 mM MgSO4, and 10 mM potassium phosphate (pH 7.0). After three washings, pellets were re-suspended in the same buffer. […] Fluorescence measurements were taken at 30-s intervals before and after addition of ceragenins. FIG. 15A illustrates the depolarization of S. aureus measured by an increase in fluorescence of 3,3′ diethylthiodicarbodyanine iodide (DiS-C2(5)). […]\nFIG. 15B illustrates the depolarization of S. aureus measured by an increase in fluorescence of 3,3′ diethylthiodicarbodyanine iodide. […]"}, "[12]": {"tested_on": "E. coli, Staphylococcus aureus, Enterococcus faecalis", "assay": "MIC of liptin 3e, overall statement", "type": "cell-based", "settings": "LB culture"}, "[13]": {"tested_on": "Enterococcus faecalis 29213", "assay": "MIC in LB culture", "type": "cell-based", "protocol": "Strep fuecalis (aka Enterococcus faecalis 29213) cultures were prepared the same way as S. aureus, and analyzed as above. […] The OD600 of the control was 0.72. […] See photos for visual representation. See FIG. 11D for a visual image of the S. fuecalis cultures."}, "[14]": {"assay": "Liptin-PG binding in solution (ITC and/or 1H NMR titration)", "settings": "ITC; 50% DMSO, 45% CHCl3, 5% CH3OH", "protocol": "The lipid binding ability of liptins 1-3 (FIG. 2A) have been investigated in solution using isothermal titration calorimetry (ITC) and/or ^1H NMR. Stoichiometry of binding was accomplished with Job plots using ^1H NMR. […] The use of organic solvents allowed the determination of binding motif using ^1H NMR.\nLiptins 1b, 1e, 2c, 2d, 3a, 3c in DMF/5% CHCl3; 3e in 50% DMSO, 45% CHCl3, 5% CH3OH.\nLiptins 1h and 1i 40% DMSO, 60% CHCl3, 3f in 20% DMSO, 80% CHCl3."}},
  "data": [
    {"smiles": "NCC(=O)Nc1ccccc1-c1c2nc(c(-c3ccccc3NC(=O)CN)c3ccc([nH]3)c(-c3ccccc3NC(=O)CN)c3nc(c(-c4ccccc4NC(=O)CN)c4ccc1[nH]4)C=C3)C=C2.O=C(O)C(F)(F)F.O=C(O)C(F)(F)F.O=C(O)C(F)(F)F.O=C(O)C(F)(F)F", "note": "[Liptin 3e]", "values": [
      {"measurement": "MIC after 15 serial passages", "setting": "[1]", "result": "no different than initial MICs"},
      {"measurement": "MIC after 15 serial passages", "setting": "[2]", "result": "no different than initial MICs"},
      {"measurement": "MIC after 15 serial passages", "setting": "[3]", "result": "no different than initial MICs"},
      {"measurement": "lag phase", "setting": "[4]; 0.5 μM", "result": 8, "unit": "h"},
      {"measurement": "lag phases", "setting": "[4]; ≥1.5 μM", "result": "days to weeks"},
      {"measurement": "lag phases", "setting": "[5]; 1.5 μM", "result": 8, "unit": "h"},
      {"measurement": "lag phases", "setting": "[5]; 10 μM", "result": "greater than 24 h"},
      {"measurement": "water solubility", "setting": "[6]", "result": "quite water soluble"},
      {"measurement": "stability: UV/Visible spectrum of membrane-bound liptin", "setting": "[7]; 12 hours in bacterial culture", "result": "no change"},
      {"measurement": "time until bacterial replication completely stops", "setting": "[7]; one-time addition of 10 μM, growth phase, 37° C., OD=0.2, stopped for 12 hours", "result": "1 to 2", "unit": "h"},
      {"measurement": "bactericidal effect", "setting": "[8]", "result": "strong bactericidal effects"},
      {"measurement": "MBC (concentration with low or no growth on LB plates)", "setting": "[9]", "result": "much more than four times the MIC concentrations"},
      {"measurement": "MBC (concentration with low or no growth on LB plates)", "setting": "[10]", "result": "much more than four times the MIC concentrations"},
      {"measurement": "depolarization: fluorescence of 3,3-diethylthiodicabodyanine iodide", "setting": "[11]", "result": "increased in a concentration-dependent manner"},
      {"measurement": "MIC", "setting": "[12]", "result": "less than 2 μM"},
      {"measurement": "effect on bacterial growth", "setting": "[13]", "result": "inhibits bacterial growth"},
      {"measurement": "Ka", "setting": "[14]", "result": 2800, "unit": "M⁻¹"}
    ]}
  ]
}
